In PMC12606622, “Assessment of the Binding Patterns for Endocrine Disrupting Chemicals in Complex with Estrogen and Androgen Receptors by Leveraging the Asclepios Enalos KNIME Nodes” (Journal of Chemical Information and Modeling, 2025):
Where two headings read alike, the source gives them in different places.

Experiments:
human ERα (ESR1) = target: T1, human ERα (ESR1) (Homo sapiens, UniProt P03372); test: ERα mammalian one-hybrid reporter gene assay in transiently transfected HEK293 cells; format: cell-based; conditions: for E max [FC]: fold change vs 0.1% DMSO, at conc. BPA 10, BPF 10, BPS 30, ZEA 0.1 μM
T1 sequence (P03372 251-595): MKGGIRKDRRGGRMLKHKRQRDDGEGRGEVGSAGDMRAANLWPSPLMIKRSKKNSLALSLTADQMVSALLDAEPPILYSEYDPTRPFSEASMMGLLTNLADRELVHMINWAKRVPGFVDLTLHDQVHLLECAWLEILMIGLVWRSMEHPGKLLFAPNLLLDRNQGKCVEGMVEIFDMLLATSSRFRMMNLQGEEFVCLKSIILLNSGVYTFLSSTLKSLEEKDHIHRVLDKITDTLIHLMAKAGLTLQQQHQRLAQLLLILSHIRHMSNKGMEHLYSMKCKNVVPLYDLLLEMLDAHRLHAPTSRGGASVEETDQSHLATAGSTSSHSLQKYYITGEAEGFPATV
Procedure: (§1) HEK293 cells (ACC305, DSMZ, Braunschweig, Germany) were cultivated at 37 °C in 5% CO2 in DMEM supplemented with 10% FBS, 2 mM L-glutamine, 1 mM sodium pyruvate, 100 U/mL penicillin, and 100 μg/mL streptomycin. For exposure studies, cells were cultivated in phenol red-free DMEM, supplemented with 1% dextran-coated charcoal-treated FBS.
Per well of a 96-well plate, a plasmid DNA mixture consisting of 0.26 μg of pGL4-G5, 0.04 μg of pM-ESR1 (251–495), and 0.005 μg of pGL4.75 [hRluc/CMV] was diluted with 150 mM NaCl to a final volume of 25 μL. […] Aliquot (0.6 μL) of 1 mg/mL PEI MAX 40K solution was diluted to 25 μL with 150 mM NaCl. The diluted PEI MAX 40K was added to the diluted DNA mixture, and the mixture was incubated at room temperature for 15 min. In parallel, HEK 293 cells were adjusted to 40,000 cells in 200 μL of culture medium per well. The transfection mixture (50 μL) was added to the cell suspension, gently mixed, and pipetted into a well of a 96-well plate. The next day, the transfected cells were treated with chemicals for 24 h before cell lysis with 50 μL per well of passive lysis buffer (Promega). Firefly and Renilla luciferase activities were measured as described previously. Results were normalized for transfection efficiency by dividing firefly luciferase activity by Renilla luciferase activity, measured from the same well. Assays were performed in technical triplicate in each independent experiment. […] Concentration response curves were fitted with nonlinear regression using the formula with a variable slope (four parameters) or the formula with a standard slope (three parameters) of GraphPad Prism 10.4.1 (GraphPad Software, Boston, MA, USA), as indicated in the respective figure legends.
ERα mammalian one-hybrid assays were executed in transiently transfected HEK293 cells, which were treated afterward for 24 h with the indicated concentrations of chemicals. Data are presented as a mean ± SD fold change (n ≥ 3 independent experiments) with respect to the normalized reporter gene activity of cells treated with 0.1% DMSO only.

human AR = target: T2, human AR (Homo sapiens, UniProt P10275); format: cell-based; conditions: for % residual agonist activity: at 30 μM, 3 nM 11-ketoDHT only = 100%
T2 sequence (P10275 640-920): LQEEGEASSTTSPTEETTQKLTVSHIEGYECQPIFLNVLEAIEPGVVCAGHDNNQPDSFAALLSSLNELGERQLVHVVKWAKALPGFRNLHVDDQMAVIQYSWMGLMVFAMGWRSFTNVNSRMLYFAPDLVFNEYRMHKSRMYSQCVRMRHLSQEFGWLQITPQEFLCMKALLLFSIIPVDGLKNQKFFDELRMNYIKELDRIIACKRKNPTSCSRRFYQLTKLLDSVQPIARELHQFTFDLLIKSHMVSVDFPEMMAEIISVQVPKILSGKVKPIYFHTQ
Procedure: as §1
In the case of the N–C-terminal interaction assay of AR, the ESR1 effector plasmid was replaced by 0.02 μg each of pVP16-AR (1–503) and pM-AR (640–920). Aliquot (0.6 μL) of 1 mg/mL PEI MAX 40K solution was diluted to 25 μL with 150 mM NaCl. The diluted PEI MAX 40K was added to the diluted DNA mixture, and the mixture was incubated at room temperature for 15 min. In parallel, HEK 293 cells were adjusted to 40,000 cells in 200 μL of culture medium per well. The transfection mixture (50 μL) was added to the cell suspension, gently mixed, and pipetted into a well of a 96-well plate. The next day, the transfected cells were treated with chemicals for 24 h before cell lysis with 50 μL per well of passive lysis buffer (Promega). Firefly and Renilla luciferase activities were measured as described previously. Results were normalized for transfection efficiency by dividing firefly luciferase activity by Renilla luciferase activity, measured from the same well. Assays were performed in technical triplicate in each independent experiment. […] Concentration response curves were fitted with nonlinear regression using the formula with a variable slope (four parameters) or the formula with a standard slope (three parameters) of GraphPad Prism 10.4.1 (GraphPad Software, Boston, MA, USA), as indicated in the respective figure legends.
AR N–C-terminal interaction mammalian two-hybrid assays were run in transiently transfected HEK293 cells, which were treated afterward for 24 h with the indicated concentrations of chemicals. […] Data are presented as a mean ± SD fold change (n = 4 independent experiments) with respect to the normalized reporter gene activity of cells treated with 0.1% DMSO only. […] Data are presented as mean ± SD (n = 3 independent experiments) with respect to the normalized reporter gene activity of cells treated with 3 nM 11-ketoDHT only, which was designated as 100%. Curves were fitted with nonlinear regression using the formula with a standard slope (three parameters) of GraphPad Prism 10.4.1.

[1] = HEK293, 24 h treatment, four-parameter fit, n ≥ 3, read-out: EC50 mean (activating ERα)

SMILES	EC50 (human ERα (ESR1); [1]) [nM]	E max [FC] (human ERα (ESR1))	% residual agonist activity (human AR) [%]	other results
O=S(=O)(c1ccc(O)cc1)c1ccc(O)cc1 [Bisphenol S]	5200	48.5	–	–
C[C@H]1CCCC(=O)CCC/C=C/c2cc(O)cc(O)c2C(=O)O1 [Zearalenone]	–	89.9	1.5	IC50 (human AR): 3700 nM; EC50 (human ERα (ESR1)): 4.9 nM; potency fold higher than BPA (ERα activation) (human ERα (ESR1); ratio of EC50 values, vs BPA): 120 fold; potency fold higher than BPF (ERα activation) (human ERα (ESR1); ratio of EC50 values, vs BPF): 430 fold; potency fold higher than BPS (ERα activation) (human ERα (ESR1); ratio of EC50 values, vs BPS): 1060 fold
CC(C)(c1ccc(O)cc1)c1ccc(O)cc1 [Bisphenol A]	–	19.6	3.1	IC50 (human AR; read-out: IC50 mean (inhibiting AR)): 980 nM
C[C@]12CCC(=O)C[C@@H]1CC[C@H]1[C@@H]3CC[C@H](O)[C@@]3(C)CC(=O)[C@@H]12 [11-ketoDHT, 11-Ketodihydrotestosterone, reference compound]	–	–	–	EC50 (human AR; agonist mode, HEK293, 24 h, n = 4, 95% CI 2.3–4.7 nM, read-out: EC50 (induction of AR N–C interaction)): 3.3 nM
Oc1ccc(Cc2ccc(O)cc2)cc1 [Bisphenol F]	2100	56.1	–	–
